The record followed here is ChEMBL document CHEMBL1122349, “Mannich bases of 4-phenyl-3-buten-2-one: a new class of antiherpes agent” (1983).

For assay [1], the system named is Human alphaherpesvirus 1. Nature of the assay: Reduction of lesion (from control), in hairless mouse model infected with HVH-1(antiherpes activity). It is filed as functional, herpes simplex virus. Also on record: concentration or dose not given beside the values.
The subject of assay [2] is Human alphaherpesvirus 1. In words: Average lesion score in hairless mouse model infected with HVH-1(antiherpes activity). It is filed as functional, herpes simplex virus.
Assay [3] relates to Human alphaherpesvirus 1. Nature of the assay: Antiherpes (Type-1) activity in mouse paralysis model expressed as animals paralyzed treated/percent animals paralyzed control (% T/C). In kind it is functional, herpes simplex virus.
The species named for assay [4] is Mus musculus. Nature of the assay: Reduction of lesion severity, in hairless mouse test against herpes type-1,at 0.37% dose in 1.4% aq.polyvinyl alcohol. It is filed as functional.
Assay [5] deals with Human alphaherpesvirus 1. Nature of the assay: Reduction of lesion severity, in hairless mouse test against herpes type-1,at 3% dose in 1.4% aq.polyvinyl alcohol. In kind it is functional, herpes simplex virus.
The species entered for assay [6] is Mus musculus. Nature of the assay: Reduction of lesion severity, in hairless mouse test against herpes type-1,at 1.5% dose in 1.4% aq.polyvinyl alcohol. It is filed as functional.
Assay [7] is filed under the species Mus musculus. Nature of the assay: Average lesion score in hairless mouse test against Herpes type-1 at dose of 1.5% in 1.4% aq.polyvinyl alcohol. In kind it is functional.
For assay [8], the system named is Human alphaherpesvirus 1. Nature of the assay: Average lesion score in hairless mouse test against Herpes type-1 at dose of 0.75% in 1.4% aq.polyvinyl alcohol. It is filed as functional, herpes simplex virus.
For assay [9], the system named is Human alphaherpesvirus 1. Nature of the assay: Average lesion score in hairless mouse test against Herpes type-1 at dose of 3% in 1.4% aq.polyvinyl alcohol. It is filed as functional, herpes simplex virus.
The species entered for assay [10] is Mus musculus. In words: Average lesion score in hairless mouse test against Herpes type-1 at dose of 0.37% in 1.4% aq.polyvinyl alcohol. It is filed as functional.
For assay [11], the system named is Human alphaherpesvirus 1. In words: Reduction of lesion severity, in hairless mouse test against herpes type-1,at 0.75% dose in 1.4% aq.polyvinyl alcohol. It is filed as functional, herpes simplex virus.
For assay [12], the species on record is Mus musculus. Nature of the assay: Reduction of lesion severity, in hairless mice test against herpes type-2,at 0.37% dose in 1.4% aq.polyvinyl alcohol. It is filed as functional.
The species entered for assay [13] is Mus musculus. Nature of the assay: Reduction of lesion severity, in hairless mice test against herpes type-2,at 1.5% dose in 1.4% aq.polyvinyl alcohol. It is filed as functional.
The species named for assay [14] is Mus musculus. In words: Reduction of lesion severity, in hairless mice test against herpes type-2,at 0.75% dose in 1.4% aq.polyvinyl alcohol. In kind it is functional.
The species named for assay [15] is Mus musculus. In words: Reduction of lesion severity, in hairless mice test against herpes type-2,at 2% dose in 1.4% aq.polyvinyl alcohol. In kind it is functional.
For assay [16], the species on record is Mus musculus. In words: Reduction of lesion severity, in hairless mice test against herpes type-2,at 5% dose in 1.4% aq.polyvinyl alcohol. It is filed as functional.
The species entered for assay [17] is Mus musculus. Nature of the assay: Reduction of lesion severity, in hairless mouse test against herpes type-1,at 5% dose in 1.4% aq.polyvinyl alcohol. In kind it is functional.
The species named for assay [18] is Mus musculus. Nature of the assay: Average lesion score in hairless mouse test against Herpes type-1 at dose of 5% in 1.4% aq.polyvinyl alcohol. It is filed as functional.

Each structure is given as a SMILES string. Where “and” joins values, the source holds several entries; their conditions need not be identical. Equal entries are not always repeated.

On to `CN(C)CCC(=O)/C=C/c1ccccc1.Cl`, for which, in the assay with Human alphaherpesvirus 1 [1], the Reduction was found to be 30%. In the assay with Human alphaherpesvirus 1 [2], this molecule displayed an Average lesion score of 1.8.

A word on the T/C: it is the result in the treated group divided by that in the control group, in per cent. On to `Cl.OC(/C=C/c1ccccc1)CCN1CCOCC1` (stereo not drawn), for which, in the assay on Human alphaherpesvirus 1 [3], the T/C amounted to 88%.

With `O=C(/C=C/c1ccccc1)CCSc1ccccc1`, the Reduction in the assay on Human alphaherpesvirus 1 [1] was 10%. This molecule displayed an Average lesion score in the assay with Human alphaherpesvirus 1 [2] of 2.5.

`COc1cccc(/C=C/C(=O)CC[N+](C)(C)C)c1.[I-]` showed a Reduction in the assay with Human alphaherpesvirus 1 [1] of 86%. Moreover, the Average lesion score in the assay on Human alphaherpesvirus 1 [2] came out at 0.33.

With `C[S+]([O-])CCC(=O)/C=C/c1ccccc1` (stereo not drawn), the Reduction in the assay on Human alphaherpesvirus 1 [1] was determined as 48%. This molecule also displayed an Average lesion score in the assay on Human alphaherpesvirus 1 [2] of 1.3.

`CC(C)(C[N+](C)(C)C)C(=O)/C=C/c1ccccc1.[I-]`: the Reduction with Human alphaherpesvirus 1 [1] is 13%. Also, in the assay on Human alphaherpesvirus 1 [2], the Average lesion score is 2.33.

With `O=C(CCc1ccc(Cl)c(Cl)c1)CCN1CCOCC1`, the T/C in the assay with Human alphaherpesvirus 1 [3] stood at 50%.

`O=C(/C=C/c1ccccc1)CCNc1ccccc1`: the Reduction in the assay on Human alphaherpesvirus 1 [1] worked out at 9%. Besides, in the assay with Human alphaherpesvirus 1 [2], the Average lesion score is 2.67.

In turn, `CC(C[N+](C)(C)C)C(=O)/C=C/c1ccccc1.[I-]` (stereo not drawn) came in with a Reduction in the assay on Human alphaherpesvirus 1 [1] of 89%. Further, the Average lesion score in the assay with Human alphaherpesvirus 1 [2] is listed as 0.33.

As to `C[S+](C)CCC(=O)/C=C/c1ccccc1.[I-]`, the Reduction in the assay on Human alphaherpesvirus 1 [1] is recorded as 82%; in the assay listed under Mus musculus [4], 76%; in the assay on Human alphaherpesvirus 1 [5], 88%; in the assay filed under Mus musculus [6], 82%; in the assay on Human alphaherpesvirus 1 [11] it was 76%. Moreover, the Average lesion score in the assay listed under Mus musculus [7] came to 0.5; in the assay with Human alphaherpesvirus 1 [8], 0.67; in the assay on Human alphaherpesvirus 1 [9], 0.33; in the assay on Human alphaherpesvirus 1 [2] it was 0.5; in the assay filed under Mus musculus [10], 0.67.

With `C[N+](C)(C)CCC(=O)/C=C/c1ccccc1.[I-]`, the Reduction is 64% in the assay on Human alphaherpesvirus 1 [1]; 76% in the assay filed under Mus musculus [4]; 88% in the assay with Human alphaherpesvirus 1 [5]; 82% in the assay listed under Mus musculus [6]; 76% in the assay on Human alphaherpesvirus 1 [11]. In addition, the Average lesion score in the assay listed under Mus musculus [7] turned out to be 0.5; in the assay on Human alphaherpesvirus 1 [8], 0.67; with Human alphaherpesvirus 1 [9], 0.33; in the assay on Human alphaherpesvirus 1 [2], 1; in the assay listed under Mus musculus [10], 0.67.

In the assay with Human alphaherpesvirus 1 [1], `CCCSCCC(=O)/C=C/c1ccccc1` yielded a Reduction of 0%. In the assay with Human alphaherpesvirus 1 [2], this molecule displayed an Average lesion score of 2.8.

The molecule `CCC[S+](C)CCC(=O)/C=C/c1ccccc1.[I-]` (stereo not drawn) returned a Reduction in the assay with Human alphaherpesvirus 1 [1] of 74%. The Average lesion score in the assay with Human alphaherpesvirus 1 [2] turned out to be 0.67.

Molecule `CCOP(=O)(CCC(=O)/C=C/c1ccccc1)OCC` gave a Reduction in the assay on Human alphaherpesvirus 1 [1] of 10%. Moreover, the Average lesion score in the assay on Human alphaherpesvirus 1 [2] is 2.3.

Molecule `CSc1ccc(/C=C/C(=O)CCN2CCOCC2)cc1.Cl` returned a T/C in the assay on Human alphaherpesvirus 1 [3] of 12%.

As for `Cl.O=C(/C=C/c1cccc(C(F)(F)F)c1)CCN1CCOCC1`, the T/C with Human alphaherpesvirus 1 [3] is recorded as 11%.

Molecule `Cl.N#Cc1ccc(/C=C/C(=O)CCN2CCOCC2)cc1` registered a T/C in the assay on Human alphaherpesvirus 1 [3] of 24%.

`Cl.O=C(/C=C/c1c(Cl)cccc1Cl)CCN1CCOCC1`: in the assay with Human alphaherpesvirus 1 [3], the T/C is 14%.

On to `Cl.O=C(/C=C/c1ccc(Cl)c(Cl)c1)CCN1CCOCC1`, for which the Reduction is reported as 67% in the assay filed under Mus musculus [4], 80% in the assay with Human alphaherpesvirus 1 [5], 80% in the assay listed under Mus musculus [6] and 80% with Human alphaherpesvirus 1 [11]. Besides, the Average lesion score in the assay listed under Mus musculus [7] stood at 0.5; with Human alphaherpesvirus 1 [8], 0.5; in the assay with Human alphaherpesvirus 1 [9] it was 0.5; in the assay listed under Mus musculus [10], 0.83. The T/C with Human alphaherpesvirus 1 [3] is on record as 0%.

Regarding `CS(=O)(=O)c1ccc(/C=C/C(=O)CCN2CCOCC2)cc1.Cl`, the T/C in the assay on Human alphaherpesvirus 1 [3] was 12%.

As to `Cl.O=C(/C=C/c1ccccc1)CCN1CCOCC1`, the Reduction in the assay with Human alphaherpesvirus 1 [1] is 94%; in the assay filed under Mus musculus [12], 70%; in the assay filed under Mus musculus [4] it was 67%; with Human alphaherpesvirus 1 [5], 87%; in the assay listed under Mus musculus [13], 78%; in the assay filed under Mus musculus [6], 80%. Further, the Reduction is reported as 78% in the assay listed under Mus musculus [14], 85% in the assay listed under Mus musculus [15] and 67% in the assay on Human alphaherpesvirus 1 [11]. Also, the Average lesion score is on record as 0.55 in the assay filed under Mus musculus [7]; 0.83 with Human alphaherpesvirus 1 [8]; 0.33 in the assay on Human alphaherpesvirus 1 [9]; 0.17 with Human alphaherpesvirus 1 [2]; 0.83 in the assay filed under Mus musculus [10]. Further, the T/C in the assay with Human alphaherpesvirus 1 [3] was determined as 11%.

On to `Cl.O=C(/C=C/c1ccc2c(c1)OCO2)CCN1CCOCC1`, for which the T/C in the assay with Human alphaherpesvirus 1 [3] was 14%.

`COc1cccc(/C=C/C(=O)CCN2CCOCC2)c1.Cl` had a T/C in the assay with Human alphaherpesvirus 1 [3] of 0%.

In turn, `Cl.O=C(/C=C/c1ccc(O)cc1)CCN1CCOCC1` had a T/C in the assay with Human alphaherpesvirus 1 [3] of 63%.

In turn, `COc1ccc(/C=C/C(=O)CCN2CCOCC2)cc1.Cl` displayed a T/C in the assay with Human alphaherpesvirus 1 [3] of 25%.

On to `Cl.O=C(/C=C/c1cccc([N+](=O)[O-])c1)CCN1CCOCC1`, for which, in the assay on Human alphaherpesvirus 1 [3], the T/C was found to be 47%.

`Cl.O=C(/C=C/c1ccc(Cl)cc1)CCN1CCOCC1`: the T/C with Human alphaherpesvirus 1 [3] was found to be 12%.

Consider `Cc1ccc(/C=C/C(=O)CCN2CCOCC2)cc1.Cl`, for which the T/C in the assay with Human alphaherpesvirus 1 [3] came to 38%.

Consider `O=C(O)CP(=O)([O-])[O-].[Na+].[Na+]` [DISODIUM CARBOXYMETHYLPHOSPHONATE], for which the Reduction was 78% in the assay listed under Mus musculus [16]; 74% in the assay with Human alphaherpesvirus 1 [1]; 69% with Human alphaherpesvirus 1 [5]; 87% in the assay listed under Mus musculus [17]; 9% in the assay on Human alphaherpesvirus 1 [11]. The Average lesion score with Human alphaherpesvirus 1 [8] is reported as 2.5; in the assay with Human alphaherpesvirus 1 [9], 0.83; in the assay on Human alphaherpesvirus 1 [2], 0.33; in the assay filed under Mus musculus [18], 0.33. In the assay with Human alphaherpesvirus 1 [3], the T/C is 24% and 61%.
